Measurements taken from patent US20250250230A1, “HETEROCYCLIC COMPOUND” (TAKEDA PHARMACEUTICAL COMPANY LIMITED, priority 2022, published 2025).

target: T1, human orexin type 2 receptor (Homo sapiens, UniProt O43614); assay: Measurement of orexin type 2 receptor agonist activity (calcium fluorescence, Fluo-4 AM, FDSS); format: cell-based; conditions: test compound 3 μM; CHO cells expressing human OX2 receptor; DMSO = 0%, orexin A (human) = 100%
T1 construct: expressed in transfected cells
T1 sequence (O43614 1-444): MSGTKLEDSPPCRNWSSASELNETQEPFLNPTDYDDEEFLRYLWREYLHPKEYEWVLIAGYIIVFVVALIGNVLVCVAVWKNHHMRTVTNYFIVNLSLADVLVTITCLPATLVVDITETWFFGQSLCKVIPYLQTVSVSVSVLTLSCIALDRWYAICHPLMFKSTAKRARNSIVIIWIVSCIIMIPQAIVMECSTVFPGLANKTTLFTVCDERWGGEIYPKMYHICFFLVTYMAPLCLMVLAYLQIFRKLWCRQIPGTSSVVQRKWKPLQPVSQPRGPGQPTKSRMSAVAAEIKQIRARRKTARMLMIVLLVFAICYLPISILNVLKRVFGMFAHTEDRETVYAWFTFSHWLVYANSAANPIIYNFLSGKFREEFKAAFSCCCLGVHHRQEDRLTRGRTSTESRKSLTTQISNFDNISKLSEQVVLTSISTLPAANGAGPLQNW
Method in brief: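 Agonist response scaled between vehicle (0%) and human orexin A at 10 nM final (100%), from 2-min kinetic Fluo-4 fluorescence reads. Stable hOX2R CHO-K1 clone, dye-loaded in HBSS/20 mM HEPES/0.1% BSA with 1.25 mM probenecid before compound addition.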

OX2R agonist activity (3 μM, %) [%] | SMILES
98 | CS(=O)(=O)NC12CCC1CN(C(=O)C1CC1c1ccccc1-c1c(F)cccc1F)C2 (stereo not drawn) [Example 273, N-{3-[2-(2′,6′-difluoro[1,1′-biphenyl]-2-yl)cyclopropane-1-carbonyl]-3-azabicyclo[3.1.0]hexan-1-yl}methanesulfonamide optical isomer]
88 | Cc1noc(C2(NS(C)(=O)=O)CCN(C(=O)[C@@H]3C[C@@]3(F)c3ccccc3-c3c(F)cccc3F)C2)n1 (mixture of isomers) [Example 421, a mixture of N-[(3R)-1-[(1S,2S)-2-(2′,6′-difluoro[1,1′-biphenyl]-2-yl)-2-fluorocyclopropane-1-carbonyl]-3-(3-methyl-1,2,4-oxadiazol-5-yl)pyrrolidin-3-yl]methanesulfonamide and N-[(3S)-1-[(1S,2S)-2-(2′,6′-difluoro[1,1′-biphenyl]-2-yl)-2-fluorocyclopropane-1-carbonyl]-3-(3-methyl-1,2,4-oxadiazol-5-yl)pyrrolidin-3-yl]methanesulfonamide]
95 | CS(=O)(=O)N[C@H]1C[C@H](O)CN(C(=O)[C@@H]2C[C@@]2(F)c2ccccc2-c2c(F)cccc2F)C1 [Example 332, N-{(3S,5S)-1-[(1S,2S)-2-(2′,6′-difluoro[1,1′-biphenyl]-2-yl)-2-fluorocyclopropane-1-carbonyl]-5-hydroxypiperidin-3-yl}methanesulfonamide]
96 | CC1(C)C(C(=O)N2CCC[C@H](NS(C)(=O)=O)CC2)C1c1ccccc1-c1c(F)cccc1F (mixture of isomers) [Example 288, a mixture of N-{(4S)-1-[(1R,2R)-2-(2′,6′-difluoro[1,1′-biphenyl]-2-yl)-2,2-dimethylcyclopropane-1-carbonyl]azepan-4-yl}methanesulfonamide and N-{(4S)-1-[(1S,3S)-3-(2′,6′-difluoro[1,1′-biphenyl]-2-yl)-2,2-dimethylcyclopropane-1-carbonyl]azepan-4-yl}methanesulfonamide]
96 | Cc1ccc(C2CC2C(=O)N2CC[C@H](NS(C)(=O)=O)C2)c(-c2c(F)cccc2F)c1 (stereo partly drawn) [Example 318, N-{(3S)-1-[(1R,2R)-2-(2′,6′-difluoro-5-methyl [1,1′-biphenyl]-2-yl)cyclopropane-1-carbonyl]pyrrolidin-3-yl}methanesulfonamide, or N-{(3S)-1-[(1S,2S)-2-(2′,6′-difluoro-5-methyl[1,1′-biphenyl]-2-yl)cyclopropane-1-carbonyl]pyrrolidin-3-yl}methanesulfonamide]
102 | CO[C@@H]1CCN(C(=O)[C@@H]2C[C@H]2c2ccccc2-c2c(F)cccc2F)C[C@H]1NS(C)(=O)=O [Example 350, N-{(3R,4R)-1-[(1R,2R)-2-(2′,6′-difluoro[1,1′-biphenyl]-2-yl)cyclopropane-1-carbonyl]-4-methoxypiperidin-3-yl}methanesulfonamide]
93 | CS(=O)(=O)N[C@H]1CCCCN(C(=O)C2CC2(F)c2ccccc2-c2c(F)cccc2F)C1 (mixture of isomers) [Example 291, a mixture of N-{(3S)-1-[(1R,2R)-2-(2′,6′-difluoro[1,1′-biphenyl]-2-yl)-2-fluorocyclopropane-1-carbonyl]azepan-3-yl}methanesulfonamide and N-{(3S)-1-[(1S,2S)-2-(2′,6′-difluoro[1,1′-biphenyl]-2-yl)-2-fluorocyclopropane-1-carbonyl]azepan-3-yl}methanesulfonamide]
100 | CC1(C(=O)N2CCC2CNS(C)(=O)=O)CC1c1ccccc1-c1c(F)cccc1F (stereo not drawn) [Example 327, N-({1-[2-(2′,6′-difluoro[1,1′-biphenyl]-2-yl)-1-methylcyclopropane-1-carbonyl]azetidin-2-yl}methyl)methanesulfonamide optical isomer]
95 | C[C@@H]1CN(C(=O)[C@@H]2C[C@@]2(F)c2ccccc2-c2c(F)cccc2F)C[C@@H](CNS(C)(=O)=O)O1 [Example 372, N-({(2S,6R)-4-[(1S,2S)-2-(2′,6′-difluoro[1,1′-biphenyl]-2-yl)-2-fluorocyclopropane-1-carbonyl]-6-methylmorpholin-2-yl}methyl)methanesulfonamide]
97 | CO[C@H]1C[C@H](NS(C)(=O)=O)CN(C(=O)[C@@H]2C[C@H]2c2ccccc2-c2c(F)cccc2F)C1 [Example 349, N-{(3S,5S)-1-[(1R,2R)-2-(2′,6′-difluoro[1,1′-biphenyl]-2-yl)cyclopropane-1-carbonyl]-5-methoxypiperidin-3-yl}methanesulfonamide]
94 | CS(=O)(=O)NCC12CC(C1)N(C(=O)[C@@H]1C[C@@]1(F)c1ccccc1-c1c(F)cccc1F)C2 [Example 359, N-({2-[(1S,2S)-2-(2′,6′-difluoro[1,1′-biphenyl]-2-yl)-2-fluorocyclopropane-1-carbonyl]-2-azabicyclo[2.1.1]hexan-4-yl}methyl)methanesulfonamide]

The next lines start with the compound.

SMILES | OX2R agonist activity (3 μM, %) [%]
CS(=O)(=O)NCC1CCN1C(=O)C1CC1c1ccccc1-c1c(F)cccc1F (racemic) [Example 127, a mixture of rac-N-({(2R)-1-[(1R,2R)-2-(2′,6′-difluoro[1,1′-biphenyl]-2-yl)cyclopropane-1-carbonyl]azetidin-2-yl}methyl)methanesulfonamide and rac-N-({(2S)-1-[(1R,2R)-2-(2′,6′-difluoro[1,1′-biphenyl]-2-yl)cyclopropane-1-carbonyl]azetidin-2-yl}methyl)methanesulfonamide] | 57
CS(=O)(=O)N[C@@H]1CN(C(=O)C2CC2c2ccccc2-c2c(F)cccc2F)CCC1(F)F (stereo partly drawn) [Example 215, N-{(3R)-1-[(1R,2R)-2-(2′,6′-difluoro [1,1′-biphenyl]-2-yl)cyclopropane-1-carbonyl]-4,4-difluoropiperidin-3-yl}methanesulfonamide, or N-{(3R)-1-[(1S,2S)-2-(2′,6′-difluoro[1,1′-biphenyl]-2-yl)cyclopropane-1-carbonyl]-4,4-difluoropiperidin-3-yl}methanesulfonamide] | 98
C[C@@H]1CN(C(=O)[C@@H]2C[C@H]2c2ccccc2-c2c(F)cccc2F)C[C@H]1NS(C)(=O)=O [Example 264, N-{(3S,4R)-1-[(1R,2R)-2-(2′,6′-difluoro[1,1′-biphenyl]-2-yl)cyclopropane-1-carbonyl]-4-methylpyrrolidin-3-yl}methanesulfonamide] | 97
O=C(C1CC1c1ccccc1-c1c(F)cccc1F)N1CCC(NS(=O)(=O)C2CC2)C1 (racemic) [Example 37, a mixture of rac-N-{(3R)-1-[(1R,2R)-2-(2′,6′-difluoro[1,1′-biphenyl]-2-yl)cyclopropane-1-carbonyl]pyrrolidin-3-yl}cyclopropanesulfonamide and rac-N-{(3S)-1-[(1R,2R)-2-(2′,6′-difluoro[1,1′-biphenyl]-2-yl)cyclopropane-1-carbonyl]pyrrolidin-3-yl}cyclopropanesulfonamide] | 101
CN(C)S(=O)(=O)NC1CCCN(C(=O)C2CC2c2ccccc2-c2c(F)cccc2F)C1 (racemic) [Example 164, a mixture of rac-N′-{(3R)-1-[(1R,2R)-2-(2′,6′-difluoro[1,1′-biphenyl]-2-yl)cyclopropane-1-carbonyl]piperidin-3-yl}-N,N-dimethylsulfuric diamide and rac-N′-{(3S)-1-[(1R,2R)-2-(2′,6′-difluoro[1,1′-biphenyl]-2-yl)cyclopropane-1-carbonyl]piperidin-3-yl}-N,N-dimethylsulfuric diamide] | 104
Cc1cccc(F)c1-c1ccccc1C1CC1C(=O)N1CCC(NS(C)(=O)=O)C1 (racemic) [Example 3, a mixture of rac-N-{(3R)-1-[(1R,2R)-2-(2′-fluoro-6′-methyl[1,1′-biphenyl]-2-yl)cyclopropane-1-carbonyl]pyrrolidin-3-yl}methanesulfonamide and rac-N-{(3S)-1-[(1R,2R)-2-(2′-fluoro-6′-methyl[1,1′-biphenyl]-2-yl)cyclopropane-1-carbonyl]pyrrolidin-3-yl}methanesulfonamide] | 81
CS(=O)(=O)NC1CCCN(C(=O)C2CC2c2sccc2-c2ccccc2F)CC1 (racemic) [Example 220, a mixture of rac-N-[(4R)-1-{(1R,2R)-2-[3-(2-fluorophenyl)thiophen-2-yl]cyclopropane-1-carbonyl}azepan-4-yl]methanesulfonamide and rac-N-[(4S)-1-{(1R,2R)-2-[3-(2-fluorophenyl)thiophen-2-yl]cyclopropane-1-carbonyl}azepan-4-yl]methanesulfonamide] | 79
CS(=O)(=O)NC1CCN(C(=O)C2CC2c2ccc(F)cc2-c2c(F)cccc2F)C1 (racemic) [Example 135, a mixture of rac-N-{(3R)-1-[(1R,2R)-2-(2′,5,6′-trifluoro[1,1′-biphenyl]-2-yl)cyclopropane-1-carbonyl]pyrrolidin-3-yl}methanesulfonamide and rac-N-{(3S)-1-[(1R,2R)-2-(2′,5,6′-trifluoro[1,1′-biphenyl]-2-yl)cyclopropane-1-carbonyl]pyrrolidin-3-yl}methanesulfonamide] | 111
